According to BindingDB's records for doi:10.1021/jm050825p (National Institute of Allergy and Infectious Diseases, 2006):

Experiments:
[1] = target: T1, 3-oxoacyl-[acyl-carrier-protein] synthase 2 (Mycobacterium tuberculosis (strain ATCC 25618 / H37Rv), UniProt P9WQD7); test: Inhibitory activity against KasB from Mycobacterium tuberculosis H37Rv
T1 sequence (P9WQD7 whole entry): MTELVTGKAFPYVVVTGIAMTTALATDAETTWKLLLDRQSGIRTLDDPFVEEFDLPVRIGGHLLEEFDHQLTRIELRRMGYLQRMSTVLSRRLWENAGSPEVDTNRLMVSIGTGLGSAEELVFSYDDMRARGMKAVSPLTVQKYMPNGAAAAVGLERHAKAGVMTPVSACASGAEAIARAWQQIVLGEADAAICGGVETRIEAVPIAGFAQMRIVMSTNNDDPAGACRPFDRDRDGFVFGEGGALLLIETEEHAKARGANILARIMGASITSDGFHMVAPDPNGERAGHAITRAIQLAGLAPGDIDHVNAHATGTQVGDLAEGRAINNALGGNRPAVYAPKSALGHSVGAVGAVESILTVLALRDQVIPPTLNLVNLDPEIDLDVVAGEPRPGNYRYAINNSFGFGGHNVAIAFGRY

[2] = target: T2, 3-oxoacyl-[acyl-carrier-protein] synthase 3 (Mycobacterium tuberculosis (strain ATCC 25618 / H37Rv), UniProt P9WNG3); test: Inhibitory activity against FabH from Mycobacterium tuberculosis H37Rv
T2 sequence (P9WNG3 whole entry): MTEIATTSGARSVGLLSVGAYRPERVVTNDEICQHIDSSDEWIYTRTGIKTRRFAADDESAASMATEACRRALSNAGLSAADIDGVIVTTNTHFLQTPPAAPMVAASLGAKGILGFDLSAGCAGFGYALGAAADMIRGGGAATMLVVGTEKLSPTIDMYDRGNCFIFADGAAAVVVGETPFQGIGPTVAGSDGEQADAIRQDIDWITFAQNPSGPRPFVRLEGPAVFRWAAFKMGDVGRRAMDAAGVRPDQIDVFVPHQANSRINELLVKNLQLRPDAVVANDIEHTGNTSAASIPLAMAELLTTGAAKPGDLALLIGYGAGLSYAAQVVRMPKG

[3] = target: T3, 3-oxoacyl-[acyl-carrier-protein] synthase 1 (Escherichia coli (strain K12), UniProt P0A953); test: Inhibitory activity against FabB from Escherichia coli ANSI
T3 sequence (P0A953 whole entry): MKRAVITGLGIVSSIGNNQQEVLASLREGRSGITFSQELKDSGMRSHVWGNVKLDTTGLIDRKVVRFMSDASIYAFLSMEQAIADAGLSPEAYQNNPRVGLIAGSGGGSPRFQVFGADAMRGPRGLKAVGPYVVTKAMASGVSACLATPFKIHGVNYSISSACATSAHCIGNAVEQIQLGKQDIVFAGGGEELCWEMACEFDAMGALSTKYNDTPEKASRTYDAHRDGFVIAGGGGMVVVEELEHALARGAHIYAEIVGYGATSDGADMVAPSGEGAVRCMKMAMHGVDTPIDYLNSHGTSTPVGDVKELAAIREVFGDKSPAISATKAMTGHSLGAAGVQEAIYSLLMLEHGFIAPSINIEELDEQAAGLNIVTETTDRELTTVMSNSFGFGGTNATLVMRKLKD

[4] = target: T4, 3-oxoacyl-[acyl-carrier-protein] synthase 3 (Escherichia coli, UniProt C3TDZ2); test: Inhibitory activity against FabH from Escherichia coli ANSI
T4 sequence (C3TDZ2 whole entry): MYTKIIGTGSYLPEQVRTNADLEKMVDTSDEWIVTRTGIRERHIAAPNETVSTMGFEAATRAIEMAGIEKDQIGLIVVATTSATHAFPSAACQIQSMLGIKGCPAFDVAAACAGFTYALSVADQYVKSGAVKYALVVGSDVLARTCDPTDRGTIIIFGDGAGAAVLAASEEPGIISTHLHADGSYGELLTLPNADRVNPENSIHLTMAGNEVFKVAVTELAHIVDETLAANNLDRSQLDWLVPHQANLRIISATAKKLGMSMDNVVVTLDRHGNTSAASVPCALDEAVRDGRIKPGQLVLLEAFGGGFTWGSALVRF

`COc1ccc(CC2(C)SC(=O)C(C)C2=O)cc1` (stereo unspecified) [4-Hydroxy-5-(4-methoxy-benzyl)-3,5-dimethyl-5H-thiophen-2-one] gave an IC50 [1] of over 1000 µM, an IC50 [2] of over 1000 µM and an IC50 [3] of over 1000 µM. It also gave an IC50 [4] of over 1000 µM.

Molecule `CC1C(=O)SC(C)(Cc2c(Cl)cccc2Cl)C1=O` (stereo unspecified) [5-(2,6-dichlorobenzyl)-3,5-dimethyl-4-hydroxy-5H-thiophen-2-one] has an IC50 [1] of over 1000 µM, an IC50 [2] of over 1000 µM and an IC50 [3] of over 1000 µM. For the same molecule, the IC50 [4] was over 1000 µM.

For `CC1C(=O)SC(C)(Cc2ccccc2Cl)C1=O` (stereo unspecified) [5-(2-chlorobenzyl)-3,5-dimethyl-4-hydroxy-5H-thiophen-2-one], the IC50 [1] was over 1000 µM, the IC50 [2] was over 1000 µM and the IC50 [3] was over 1000 µM. For the same molecule, the IC50 [4] was over 1000 µM.

In the case of `CC1C(=O)SC(C)(Cc2cccc(Cl)c2)C1=O` (stereo unspecified) [5-(3-chlorobenzyl)-3,5-dimethyl-4-hydroxy-5H-thiophen-2-one], the IC50 [1] is reported as over 1000 µM, the IC50 [2] is reported as over 1000 µM and the IC50 [3] is reported as over 1000 µM. The IC50 [4] was over 1000 µM.

Molecule `CC1C(=O)SC(C)(Cc2ccc(Cl)cc2)C1=O` (stereo unspecified) [5-(4-chlorobenzyl)-3,5-dimethyl-4-hydroxy-5H-thiophen-2-one] has an IC50 [1] of over 1000 µM, an IC50 [2] of over 100 µM and an IC50 [3] of over 1000 µM. For the same molecule, the IC50 [4] was over 1000 µM.

`CC1C(=O)SC(C)(Cc2ccc(C(C)(C)C)cc2)C1=O` (stereo unspecified) [5-(4-tert-butylbenzyl)-3,5-dimethyl-4-hydroxy-5H-thiophen-2-one] showed an IC50 [1] of over 1000 µM, an IC50 [2] of over 100 µM and an IC50 [3] of over 1000 µM. The IC50 [4] was over 1000 µM.

Work on `C=CCCC1(C)SC(=O)C(C)C1=O` (stereo unspecified) [5-(but-3-enyl)-3,5-dimethyl-4-hydroxy-5H-thiophen-2-one] yielded an IC50 [1] of over 1000 µM, an IC50 [2] of over 1000 µM and an IC50 [3] of over 1000 µM. The IC50 [4] was over 1000 µM.

Molecule `CC1C(=O)SC(C)(CC2CCC2)C1=O` (stereo unspecified) [5-cyclobutylmethyl-3,5-dimethyl-4-hydroxy-5H-thiophen-2-one] has an IC50 [1] of over 1000 µM, an IC50 [2] of over 1000 µM and an IC50 [3] of over 1000 µM. It also gave an IC50 [4] of over 1000 µM.

With `CC1C(=O)SC(C)(CC2CCCCC2)C1=O` (stereo unspecified) [5-cyclohexylmethyl-3,5-dimethyl-4-hydroxy-5H-thiophen-2-one] the IC50 [1] was over 1000 µM, the IC50 [2] was over 1000 µM and the IC50 [3] was over 1000 µM. For the same molecule, the IC50 [4] was over 1000 µM.
